Results reported in US11065211B2, “Isoxylitones mediated neurogenesis” (priority 2018, dated 2021).

Tested on: cortical cells and hippocampal cells
Test: MTT assay, in vitro screening of compounds for cell proliferation activity
Format: cell-based, rat
Conditions: 24 hrs treatment
Excerpt: The Tetrazolium MTT [3-(4, 5-dimethyl thiazol-2-yl)-2,5-diphenyl tetrazolium bromide] Assay: MTT assay was used to screen various compounds for their proliferating effect on cortical cells and hippocampal cells. The principle of MTT test is based on the ability of live cells to form insoluble purple formazan product from the breakdown of the water soluble yellow tetrazolium salt by mitochondrial enzyme succinate dehydrogenase (Mosmann, 1983). The resulting intracellular purple formazan can quantify by spectrophotometric means. The MTT Cell Proliferation Assay measures the cell proliferation rate and conversely, when metabolic events lead to apoptosis or necrosis, the reduction in cell viability.
The density of the cortical and hippocampal cells was adjusted at the density 2×10^5 cells/mL in complete DMEM medium (5% FBS). The cells (5000/well) were then plated in 96-wells plate and incubated for 24 hrs at 37° C. with 5% CO2. Following 24 hrs incubation, media was removed and 100 μL of each test compounds in DMEM media (5% FBS) were added. […] The culture plates were re-incubated for 24 hrs at 37° C. in 5% CO2. Cells treated with 0.1% DMSO in complete media (5% FBS) were used as vehicle controls. […] The absorbance was read at 495 nm on spectrophotometer. […] The percent rate of proliferation was calculated using the following formula, % rate of proliferation={(At−Ab)/(Ac−Ab)}×100

SMILES: CC1=CC(=CC(=O)O)CC(C)(C)C1 (mixture of isomers) [acid analog, (E/Z)-2-(3,5,5-trimethylcyclohex-2-enylidene)acetic acid]
- activity on the cell proliferation (MTT screening): significant potent activity of isoxylitones followed by acid analog
